Data taken from ChEMBL document CHEMBL1130478, “Mono and bis double ester prodrugs of novel aminomethyl-THF 1-methylcarbapenems” (Bioorg Med Chem Lett, 1997).

How the values were obtained:
Format in all cases: functional
Mus musculus [1] = assay: Antibacterial activity against Escherichia coli (311) infection in mice after single oral dose, activity expressed as ED50
Mus musculus [2] = assay: Antibacterial activity against Escherichia coli (311) infection in mice after single subcutaneous dose, activity expressed as ED50; settings: sc
[3] = test system: Acinetobacter calcoaceticus; assay: In vitro antibacterial activity against Acinetobacter calcoaceticus (GC 756) following preincubation in mouse serum
Citrobacter freundii [4] = assay: In vitro antibacterial activity against C. freundii(GC 2211) following pre-incubation in mouse serum
Citrobacter freundii [5] = assay: In vitro antibacterial activity against C. freundii(GC 2211) without preincubation in mouse serum
Enterococcus faecalis [6] = assay: In vitro antibacterial activity against E. faecalis(GC 842) without pre-incubation in mouse serum
Enterococcus faecalis [7] = assay: In vitro antibacterial activity against E. faecalis(GC 842) following pre-incubation in mouse serum
Enterobacter cloacae [8] = assay: In vitro antibacterial activity against E. cloacae(GC 2209) following preincubation in mouse serum
Enterobacter cloacae [9] = assay: In vitro antibacterial activity against E. cloacae(GC 2209) without pre-incubation in mouse serum
Enterococcus faecium [10] = assay: In vitro for antibacterial activity against E. faecium(GC 1182) without pre-incubation in mouse serum
Escherichia coli [11] = assay: In vitro antibacterial activity expressed as MIC against Escherichia coli (ATCC 25922) following pre-incubation in mouse serum
Escherichia coli [12] = assay: In vitro antibacterial activity expressed as MIC against Escherichia coli (ATCC 25922) without pre-incubation in mouse serum
Escherichia coli [13] = assay: In vitro antibacterial activity expressed as MIC against E. coli(GC 1792) following pre-incubation in mouse serum
Escherichia coli [14] = assay: In vitro antibacterial activity expressed as MIC against E. coli(GC 1792) without pre-incubation in mouse serum
Escherichia coli [15] = assay: In vitro antibacterial activity expressed as MIC against E. coli(GC 2205) following pre-incubation in mouse serum
Escherichia coli [16] = assay: In vitro antibacterial activity expressed as MIC against E. coli(GC 2205) without pre-incubation in mouse serum
Morganella morganii [17] = assay: In vitro antibacterial activity against M. morganii(GC 2213) following pre-incubation in mouse serum
Morganella morganii [18] = assay: In vitro antibacterial activity against M. morganii(GC 2213) without pre-incubation in mouse serum
Pseudomonas aeruginosa [19] = assay: In vitro antibacterial activity against Pseudomonas aeruginosa (ATCC 27853) following pre-incubation in mouse serum
Pseudomonas aeruginosa [20] = assay: In vitro antibacterial activity against Pseudomonas aeruginosa (ATCC 27853) without pre-incubation in mouse serum
Pseudomonas aeruginosa [21] = assay: In vitro antibacterial activity against P. aeruginosa(GC 1544 oprd) without pre-incubation in mouse serum
Staphylococcus aureus [22] = assay: In vitro antibacterial activity against S aureus(ATCC 29213) following preincubation in mouse serum
Staphylococcus aureus [23] = assay: In vitro antibacterial activity against S. aureus(ATCC 29213) without pre-incubation in mouse serum
Staphylococcus aureus [24] = assay: In vitro antibacterial activity against S. aureus(GC 2220 MRSA) without pre-incubation in mouse serum
[25] = test system: Stenotrophomonas maltophilia; assay: In vitro antibacterial activity against X. maltophilia(GC 562) without pre-incubation in mouse serum
Staphylococcus aureus [26] = assay: In vitro antibacterial activity against S. aureus(GC 2220 MRSA) following pre-incubation in mouse serum
Pseudomonas aeruginosa [27] = assay: In vitro antibacterial activity against P. aeruginosa(GC 1544 oprd) following pre-incubation in mouse serum
[28] = test system: Stenotrophomonas maltophilia; assay: In vitro antibacterial activity against X. maltophilia(GC 562) following pre-incubation in mouse serum
[29] = test system: Acinetobacter calcoaceticus; assay: In vitro antibacterial activity against Acinetobacter calcoaceticus (GC 756) without preincubation in mouse serum
Enterococcus faecium [30] = assay: In vitro for antibacterial activity against E. faecium(GC 1182) following pre-incubation in mouse serum
[31] = target: T1, Dipeptidase 1 (Sus scrofa) (UniProt P22412); assay: Relative hydrolysis by hog Dehydropeptidase
T1 sequence (whole entry): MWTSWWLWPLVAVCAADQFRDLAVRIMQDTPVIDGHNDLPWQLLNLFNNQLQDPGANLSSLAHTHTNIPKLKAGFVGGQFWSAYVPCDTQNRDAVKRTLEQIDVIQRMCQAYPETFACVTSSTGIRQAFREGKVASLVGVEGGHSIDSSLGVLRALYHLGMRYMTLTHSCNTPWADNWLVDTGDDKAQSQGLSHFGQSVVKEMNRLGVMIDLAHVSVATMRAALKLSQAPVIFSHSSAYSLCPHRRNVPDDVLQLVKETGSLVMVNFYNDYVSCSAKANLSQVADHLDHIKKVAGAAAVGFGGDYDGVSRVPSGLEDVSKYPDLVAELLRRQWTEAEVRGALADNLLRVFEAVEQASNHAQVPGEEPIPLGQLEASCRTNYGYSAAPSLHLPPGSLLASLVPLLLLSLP

MIC [3] [µg/mL] | MIC (Citrobacter freundii [4]) [µg/mL] | MIC (Citrobacter freundii [5]) [µg/mL] | MIC (Enterococcus faecalis [6]) [µg/mL] | MIC (Enterococcus faecalis [7]) [µg/mL] | MIC (Enterobacter cloacae [8]) [µg/mL] | MIC (Enterobacter cloacae [9]) [µg/mL] | MIC (Enterococcus faecium [10]) [µg/mL] | MIC (Escherichia coli [11]) [µg/mL] | MIC (Escherichia coli [12]) [µg/mL] | MIC (Escherichia coli [13]) [µg/mL] | MIC (Escherichia coli [14]) [µg/mL] | MIC (Escherichia coli [15]) [µg/mL] | MIC (Escherichia coli [16]) [µg/mL] | MIC (Morganella morganii [17]) [µg/mL] | MIC (Morganella morganii [18]) [µg/mL] | MIC (Pseudomonas aeruginosa [19]) [µg/mL] | MIC (Pseudomonas aeruginosa [20]) [µg/mL] | SMILES | ED50 (Mus musculus [1]) [mg/kg] | ED50 (Mus musculus [2]) [mg/kg] | also measured
 |  |  |  |  |  |  |  |  |  |  |  |  |  |  |  |  |  | C[C@H]1C(SC2COC(CN)C2)=C(C(=O)O)N2C(=O)[C@H]([C@@H](C)O)C12 (stereo not given in full) | 3.5 | 0.28 | 
4 | 0.25 | 4 | 4 | 1 | < 0.06 | 2 | > 128 | < 0.06 | 0.12 | < 0.06 | 0.25 | < 0.06 | 0.12 | 1 | 2 | 16 | 64 | CC(=O)OC(C)OC(=O)NC[C@H]1OCC[C@H]1SC1=C(C(=O)[O-])N2C(=O)[C@H]([C@@H](C)O)C2[C@H]1C.[Na+] (stereo not given in full) | 4.9 | 0.65 | MIC (Pseudomonas aeruginosa [21]): > 128 µg/mL; MIC (Staphylococcus aureus [22]): < 0.06 µg/mL; MIC (Staphylococcus aureus [23]): 0.5 µg/mL; MIC (Staphylococcus aureus [24]): 32 µg/mL; MIC [25]: > 128 µg/mL; MIC (Staphylococcus aureus [26]): 8 µg/mL; MIC (Pseudomonas aeruginosa [27]): 32 µg/mL; MIC [28]: > 128 µg/mL; MIC [29]: 32 µg/mL; MIC (Enterococcus faecium [30]): 64 µg/mL
 |  |  |  |  |  |  |  |  |  |  |  |  |  |  |  |  |  | CC(C)C(=O)OCOC(=O)C1=C(SC2CCOC2CN)[C@H](C)C2[C@@H]([C@@H](C)O)C(=O)N12.CCN(C(C)C)C(C)C (stereo not given in full) | 2.3 | 0.18 | 
 |  |  |  |  |  |  |  |  |  |  |  |  |  |  |  |  |  | CC(=O)OC(C)OC(=O)NC[C@H]1OCC[C@H]1SC1=C(C(=O)O)N2C(=O)[C@H]([C@@H](C)O)C2[C@H]1C.CCN(C(C)C)C(C)C (stereo not given in full) | 4.5 | 0.62 | 
 |  |  |  |  |  |  |  |  |  |  |  |  |  |  |  |  |  | CC(C)OC(=O)OC(C)OC(=O)C1=C(S[C@@H]2CCO[C@@H]2CNC(=O)OCOC(=O)C(C)C)[C@H](C)C2[C@@H]([C@@H](C)O)C(=O)N12 (stereo not given in full) | 1.4 | 2.1 | 
 |  |  |  |  |  |  |  |  |  |  |  |  |  |  |  |  |  | CC(=O)OC(C)OC(=O)NC[C@H]1OCC[C@H]1SC1=C(C(=O)O)N2C(=O)[C@H]([C@@H](C)O)C2[C@H]1C (stereo not given in full) |  |  | Relative hydrolysis [31]: 6
 |  |  |  |  |  |  |  |  |  |  |  |  |  |  |  |  |  | CCOC(=O)OCOC(=O)NCC1OCCC1SC1=C(C(=O)OCOC(=O)C(C)C)N2C(=O)[C@H]([C@@H](C)O)C2[C@H]1C (stereo not given in full) | 0.87 | 0.37 | 
2 | 0.12 | 4 | 2 | 1 | 0.06 | 2 | 128 | < 0.06 | 0.5 | < 0.06 | 0.5 | < 0.06 | < 0.06 | 0.5 | 2 | 8 | 64 | CCCC(=O)OCOC(=O)NC[C@H]1OCC[C@H]1SC1=C(C(=O)[O-])N2C(=O)[C@H]([C@@H](C)O)C2[C@H]1C.[Na+] (stereo not given in full) | 3.4 | 0.26 | Relative hydrolysis [31]: 5.9; MIC (Pseudomonas aeruginosa [21]): > 128 µg/mL; MIC (Staphylococcus aureus [22]): 0.03 µg/mL; MIC (Staphylococcus aureus [23]): 0.12 µg/mL; MIC (Staphylococcus aureus [24]): 8 µg/mL; MIC [25]: > 128 µg/mL; MIC (Staphylococcus aureus [26]): 1 µg/mL; MIC (Pseudomonas aeruginosa [27]): 16 µg/mL; MIC [28]: > 128 µg/mL; MIC [29]: 32 µg/mL; MIC (Enterococcus faecium [30]): 64 µg/mL
2 | 0.25 | 4 | 16 | 2 | 0.12 | 2 | 128 | < 0.06 | 0.5 | < 0.06 | 0.5 | < 0.06 | 1 | 0.5 | 16 | 8 | 128 | CCOC(=O)OCOC(=O)C1=C(S[C@@H]2CCO[C@@H]2CN)[C@H](C)C2[C@@H]([C@@H](C)O)C(=O)N12.Cl (stereo not given in full) | 8.2 | 0.62 | Relative hydrolysis [31]: 11; MIC (Pseudomonas aeruginosa [21]): > 128 µg/mL; MIC (Staphylococcus aureus [22]): 0.03 µg/mL; MIC (Staphylococcus aureus [23]): 1 µg/mL; MIC (Staphylococcus aureus [24]): 64 µg/mL; MIC [25]: > 128 µg/mL; MIC (Staphylococcus aureus [26]): 2 µg/mL; MIC (Pseudomonas aeruginosa [27]): 32 µg/mL; MIC [28]: > 128 µg/mL; MIC [29]: 64 µg/mL; MIC (Enterococcus faecium [30]): 128 µg/mL
 |  |  |  |  |  |  |  |  |  |  |  |  |  |  |  |  |  | C[C@@H](O)[C@H]1C(=O)N2C(C(=O)O)=C(SCCNC=N)C[C@H]12 [IMIPENEM ANHYDROUS] | 79 | 0.7 | 
